Reference: ChEMBL document CHEMBL2021770, “Potent and Selective Inhibitors of Long Chain l-2-Hydroxy Acid Oxidase Reduced Blood Pressure in DOCA Salt-Treated Rats” (ACS Med Chem Lett, 2011)
One block for each molecule: values may come before it. Activity calls are given as the source filed them. The rule behind the calls is not given here.

Key:
Rattus norvegicus [1] = assay: Antihypertensive activity in DOCA-salt treated Wistar rat assessed as decrease in systolic blood pressure at 10 mg/kg, po bid administered 29 days after DOCA-salt-challenge for 15 days 12 to 15 hrs post-last dose by plethysmography; assay type: functional, organism-based; set-up: dose 10 mg/kg; conditions: Artery
Rattus norvegicus [2] = assay: Antihypertensive activity in Wistar rat assessed as reduction in DOCA-salt-induced systolic blood pressure elevation at 30 mg/kg, po bid administered on day 14 post DOCA-challenge for 21 days measured 12 to 15 hrs post-last dose by plethysmography relative to vehicle-treated control; assay type: functional, organism-based; set-up: dose 30 mg/kg; conditions: Artery
Kidney [3] = assay: Drug uptake in Wistar rat kidney at 3 mg/kg, po bid administered for 15 days measured 12 to 15 hrs post-last dose; assay type: ADME, organism-based; set-up: dose 3 mg/kg, route oral; conditions: in vivo
Rattus norvegicus [4] = assay: Antihypertensive activity in DOCA-salt treated Wistar rat assessed as decrease in systolic blood pressure at 30 mg/kg, po bid administered 29 days after DOCA-salt-challenge for 15 days 12 to 15 hrs post-last dose by plethysmography; assay type: functional, Artery
Rattus norvegicus [5] = assay: Antihypertensive activity in DOCA-salt treated Wistar rat assessed as decrease in systolic blood pressure at 3 mg/kg, po bid administered 29 days after DOCA-salt-challenge for 15 days 12 to 15 hrs post-last dose by plethysmography; assay type: functional
Rattus norvegicus [6] = assay: (§1) Ex-vivo inhibition of Hao2 in DOCA-salt treated Wistar rat kidney using [3H]-2-hydroxyoctanate as substrate assessed as inhibition of [3H]-H2O production at 30 mg/kg, po bid administered 29 days post DOCA-challenge for 15 days measured 12 to 15 hrs post-last dose by microbeta counting relative to vehicle-treated control; assay type: functional
Kidney [7] = assay: Drug uptake in Wistar rat kidney at 3 mg/kg, po bid administered for 15 days measured 1 hr post-last dose; assay type: ADME, organism-based; set-up: dose 3 mg/kg, route oral; conditions: in vivo
[8] = Elimination half life in rat at 10 mg/kg, po; assay type: ADME, organism-based; set-up: dose 10 mg/kg, route oral; conditions: in vivo, read-out: beta t1/2 (converted)
Plasma [9] = assay: Plasma concentration in Wistar rat at 3 mg/kg, po bid administered for 15 days measured 12 to 15 hrs post-last dose; assay type: ADME, organism-based; set-up: dose 3 mg/kg, route oral; conditions: in vivo
[10] = Drug metabolism in rat liver microsomes assessed as metabolic rate per 0.125 mg/mL protein; assay type: ADME, Microsome
Cytochrome P450 2D6 = Cytochrome P450 2D6 (Homo sapiens, UniProt P10635); assay: Inhibition of CYP2D6; assay type: ADME
Cytochrome P450 1A2 = molecular target: T1, Cytochrome P450 1A2 (Homo sapiens, UniProt P05177); assay: Inhibition of CYP1A2; assay type: ADME
T1 sequence (P05177 whole entry): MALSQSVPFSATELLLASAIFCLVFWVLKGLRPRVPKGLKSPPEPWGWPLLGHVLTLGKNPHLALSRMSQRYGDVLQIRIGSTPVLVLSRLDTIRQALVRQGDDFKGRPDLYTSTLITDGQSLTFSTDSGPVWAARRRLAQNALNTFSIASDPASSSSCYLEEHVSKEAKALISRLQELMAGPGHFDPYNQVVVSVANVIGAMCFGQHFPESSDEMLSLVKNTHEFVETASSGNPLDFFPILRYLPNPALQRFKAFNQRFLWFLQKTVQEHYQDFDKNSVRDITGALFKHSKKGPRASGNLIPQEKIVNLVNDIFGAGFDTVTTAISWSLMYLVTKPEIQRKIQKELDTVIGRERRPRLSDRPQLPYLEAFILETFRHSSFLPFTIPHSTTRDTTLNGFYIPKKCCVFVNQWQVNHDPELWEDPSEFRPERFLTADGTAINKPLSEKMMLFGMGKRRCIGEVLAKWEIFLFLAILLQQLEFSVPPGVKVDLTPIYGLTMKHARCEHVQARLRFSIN

[11] = Plasma concentration in Wistar rat at 30 mg/kg, po bid administered for 15 days measured 1 hr post-last dose; assay type: ADME, organism-based; set-up: dose 30 mg/kg, route oral
Cytochrome P450 3A4 = Cytochrome P450 3A4 (Homo sapiens, UniProt P08684); assay: Inhibition of CYP3A4; assay type: ADME
2-Hydroxyacid oxidase 1 = molecular target: T2, 2-Hydroxyacid oxidase 1 (Rattus norvegicus, UniProt B0BNF9); assay: Inhibition of rat His6-tagged Hao1 expressed in Escherichia coli BL21/DE3 using glcolic acid as substrate measured every 10 secs by spectrophotometry
T2 sequence (B0BNF9 whole entry): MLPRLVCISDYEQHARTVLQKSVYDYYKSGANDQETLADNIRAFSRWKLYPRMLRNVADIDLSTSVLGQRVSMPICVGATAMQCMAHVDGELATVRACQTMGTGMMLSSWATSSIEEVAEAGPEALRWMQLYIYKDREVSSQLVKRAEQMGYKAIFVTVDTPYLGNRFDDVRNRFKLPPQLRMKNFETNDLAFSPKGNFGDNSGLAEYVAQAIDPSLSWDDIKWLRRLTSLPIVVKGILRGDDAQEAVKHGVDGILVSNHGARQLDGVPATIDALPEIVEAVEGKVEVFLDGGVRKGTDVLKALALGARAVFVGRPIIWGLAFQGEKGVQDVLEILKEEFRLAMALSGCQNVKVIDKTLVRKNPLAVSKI

[12] = AUC (0 to 8 hrs) in rat at 10 mg/kg, po; assay type: ADME, organism-based; set-up: time < 8 hr, dose 10 mg/kg, route oral; conditions: plasma
[13] = Plasma concentration in Wistar rat at 3 mg/kg, po bid administered for 15 days measured 1 hr post-last dose; assay type: ADME, organism-based; set-up: dose 3 mg/kg, route oral
[14] = Plasma protein binding in rat; assay type: ADME, cell-free; conditions: read-out: PPB
Kidney [15] = assay: Drug uptake in Wistar rat kidney at 30 mg/kg, po bid administered for 15 days measured 12 to 15 hrs post-last dose; assay type: ADME, organism-based; set-up: dose 30 mg/kg, route oral; conditions: in vivo
[16] = Cmax in rat at 10 mg/kg, po; assay type: ADME, organism-based; set-up: dose 10 mg/kg, route oral; conditions: in vivo
Cytochrome P450 2C19 = Cytochrome P450 2C19 (Homo sapiens, UniProt P33261); assay: Inhibition of CYP2C19; assay type: ADME
[17] = AUC (0 to 8 hrs) in rat at 1 mg/kg, iv; assay type: ADME, organism-based; set-up: time < 8 hr, dose 1 mg/kg, route intravenous; conditions: plasma
Cytochrome P450 2C9 = Cytochrome P450 2C9 (Homo sapiens, UniProt P11712); assay: Inhibition of CYP2C9; assay type: ADME
[18] = Tmax in rat at 10 mg/kg, po; assay type: ADME, organism-based; set-up: dose 10 mg/kg, route oral; conditions: in vivo
HepG2 = assay: Cytotoxicity against human HepG2 cells; assay type: cell-based
[19] = Oral bioavailability in rat at 10 mg/kg; assay type: ADME, organism-based; conditions: in vivo
[20] = Clearance in rat at 1 mg/kg, iv; assay type: ADME, organism-based; set-up: dose 1 mg/kg, route intravenous; conditions: in vivo
[21] = Induction of cytochrome P450 at 10 uM; assay type: ADME
Plasma [22] = assay: Plasma concentration in Wistar rat at 30 mg/kg, po bid administered for 15 days measured 12 to 15 hrs post-last dose; assay type: ADME, organism-based; set-up: dose 30 mg/kg, route oral; conditions: in vivo
Rattus norvegicus [23] = assay: as §1, with “3” for “30”; assay type: functional
Rattus norvegicus [24] = assay: as §1, with “1 hr” for “12 to 15 hrs”; assay type: functional
Rattus norvegicus [25] = assay: as §1, with “3” for “30”, “1 hr” for “12 to 15 hrs”; assay type: functional
Kidney [26] = assay: Drug uptake in Wistar rat kidney at 30 mg/kg, po bid administered for 15 days measured 1 hr post-last dose; assay type: ADME, organism-based; set-up: dose 30 mg/kg, route oral; conditions: in vivo
[27] = molecular target: T3, Nuclear receptor subfamily 1 group I member 2 (Homo sapiens, UniProt O75469); assay: Induction of PXR at 100 uM
T3 sequence (O75469 whole entry): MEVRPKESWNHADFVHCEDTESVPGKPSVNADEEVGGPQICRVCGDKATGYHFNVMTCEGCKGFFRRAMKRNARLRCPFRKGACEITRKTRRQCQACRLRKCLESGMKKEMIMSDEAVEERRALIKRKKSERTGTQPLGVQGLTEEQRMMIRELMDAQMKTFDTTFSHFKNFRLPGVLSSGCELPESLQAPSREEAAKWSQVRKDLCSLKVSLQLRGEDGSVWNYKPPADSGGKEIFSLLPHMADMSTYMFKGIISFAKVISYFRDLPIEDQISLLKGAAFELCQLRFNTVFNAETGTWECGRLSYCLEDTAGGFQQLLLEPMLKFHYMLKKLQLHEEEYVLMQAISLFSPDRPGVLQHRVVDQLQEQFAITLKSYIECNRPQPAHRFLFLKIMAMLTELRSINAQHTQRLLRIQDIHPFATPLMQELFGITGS

[28] = Elimination half life in rat at 1 mg/kg, iv; assay type: ADME, organism-based; set-up: dose 1 mg/kg, route intravenous; conditions: in vivo, read-out: beta t1/2 (converted)
Rattus norvegicus [29] = species on record: Rattus norvegicus; assay: Selectivity ratio of IC50 for rat Hao1 to IC50 for rat Hao2
[30] = molecular target: Hydroxycarboxylic acid receptor 2 (Homo sapiens) (UniProt Q8TDS4); assay: Agonist activity at human GPR109a at 10 uM; assay type: functional
[31] = Volume of distribution at steady state in rat at 1 mg/kg, iv; assay type: ADME, organism-based; set-up: dose 1 mg/kg, route intravenous; conditions: in vivo, read-out: Vdss
2-Hydroxyacid oxidase 2 = molecular target: T4, 2-Hydroxyacid oxidase 2 (Rattus norvegicus, UniProt Q07523); assay: Inhibition of rat His6-tagged Hao2 expressed in Escherichia coli BL21/DE3 using 2-hydroxyoctanoic acid as substrate measured every 10 secs by spectrophotometry
T4 sequence (Q07523 whole entry): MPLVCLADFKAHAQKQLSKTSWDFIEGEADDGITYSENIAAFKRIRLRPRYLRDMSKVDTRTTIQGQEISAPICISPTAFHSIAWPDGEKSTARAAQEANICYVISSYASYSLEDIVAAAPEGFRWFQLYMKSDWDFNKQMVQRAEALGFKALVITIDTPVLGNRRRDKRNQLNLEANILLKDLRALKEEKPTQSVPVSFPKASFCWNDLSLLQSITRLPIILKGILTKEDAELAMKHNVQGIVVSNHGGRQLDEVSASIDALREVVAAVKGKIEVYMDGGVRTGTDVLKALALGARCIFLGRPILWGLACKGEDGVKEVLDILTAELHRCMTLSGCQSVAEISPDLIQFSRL

[32] = molecular target: T5, 2-Hydroxyacid oxidase 1 (Rattus norvegicus) (UniProt B0BNF9); assay: Inhibition of rat His6-tagged Hao1 expressed in Escherichia coli BL21/DE3 using glcolic acid as substrate at 10 uM measured every 10 secs by spectrophotometry
T5 sequence (whole entry): T2 sequence (B0BNF9 whole entry)

Chain of Hydroxycarboxylic acid receptor 2 (Homo sapiens) (Q8TDS4 whole entry): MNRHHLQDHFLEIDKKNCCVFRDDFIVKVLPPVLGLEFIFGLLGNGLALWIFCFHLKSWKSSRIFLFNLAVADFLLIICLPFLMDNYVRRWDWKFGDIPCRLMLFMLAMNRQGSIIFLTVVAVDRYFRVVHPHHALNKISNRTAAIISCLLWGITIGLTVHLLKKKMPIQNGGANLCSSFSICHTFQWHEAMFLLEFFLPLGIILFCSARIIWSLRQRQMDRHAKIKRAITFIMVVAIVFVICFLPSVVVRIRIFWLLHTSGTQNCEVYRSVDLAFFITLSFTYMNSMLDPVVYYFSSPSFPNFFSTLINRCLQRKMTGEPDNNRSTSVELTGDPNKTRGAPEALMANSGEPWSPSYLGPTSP
Chain of Cytochrome P450 2C19 (P33261 whole entry): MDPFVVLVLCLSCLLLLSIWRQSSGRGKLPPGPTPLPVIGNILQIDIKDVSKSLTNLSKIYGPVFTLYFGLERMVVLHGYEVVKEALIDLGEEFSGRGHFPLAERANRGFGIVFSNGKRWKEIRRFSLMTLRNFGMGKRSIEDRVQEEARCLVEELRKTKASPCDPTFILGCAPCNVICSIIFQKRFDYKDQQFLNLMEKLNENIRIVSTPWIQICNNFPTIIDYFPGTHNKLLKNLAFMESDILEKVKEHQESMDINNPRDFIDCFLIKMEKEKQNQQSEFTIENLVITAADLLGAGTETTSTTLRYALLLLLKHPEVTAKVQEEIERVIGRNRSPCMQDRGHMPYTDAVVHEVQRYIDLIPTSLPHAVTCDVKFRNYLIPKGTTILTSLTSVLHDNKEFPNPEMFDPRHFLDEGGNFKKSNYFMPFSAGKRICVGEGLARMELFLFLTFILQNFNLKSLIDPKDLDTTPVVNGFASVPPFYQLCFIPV
Chain of Cytochrome P450 2C9 (P11712 whole entry): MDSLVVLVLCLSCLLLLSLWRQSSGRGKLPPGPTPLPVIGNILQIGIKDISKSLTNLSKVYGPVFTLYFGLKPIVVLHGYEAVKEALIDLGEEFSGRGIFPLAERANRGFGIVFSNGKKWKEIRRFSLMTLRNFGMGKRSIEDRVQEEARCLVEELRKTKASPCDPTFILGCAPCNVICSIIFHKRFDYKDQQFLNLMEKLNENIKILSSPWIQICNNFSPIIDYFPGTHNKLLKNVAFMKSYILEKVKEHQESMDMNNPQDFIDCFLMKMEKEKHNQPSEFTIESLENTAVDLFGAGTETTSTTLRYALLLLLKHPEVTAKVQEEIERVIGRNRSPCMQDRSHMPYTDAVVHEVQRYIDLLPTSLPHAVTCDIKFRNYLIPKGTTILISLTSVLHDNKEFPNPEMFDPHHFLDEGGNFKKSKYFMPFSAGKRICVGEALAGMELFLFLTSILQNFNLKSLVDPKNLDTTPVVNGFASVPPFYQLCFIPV
Chain of Cytochrome P450 2D6 (P10635 whole entry): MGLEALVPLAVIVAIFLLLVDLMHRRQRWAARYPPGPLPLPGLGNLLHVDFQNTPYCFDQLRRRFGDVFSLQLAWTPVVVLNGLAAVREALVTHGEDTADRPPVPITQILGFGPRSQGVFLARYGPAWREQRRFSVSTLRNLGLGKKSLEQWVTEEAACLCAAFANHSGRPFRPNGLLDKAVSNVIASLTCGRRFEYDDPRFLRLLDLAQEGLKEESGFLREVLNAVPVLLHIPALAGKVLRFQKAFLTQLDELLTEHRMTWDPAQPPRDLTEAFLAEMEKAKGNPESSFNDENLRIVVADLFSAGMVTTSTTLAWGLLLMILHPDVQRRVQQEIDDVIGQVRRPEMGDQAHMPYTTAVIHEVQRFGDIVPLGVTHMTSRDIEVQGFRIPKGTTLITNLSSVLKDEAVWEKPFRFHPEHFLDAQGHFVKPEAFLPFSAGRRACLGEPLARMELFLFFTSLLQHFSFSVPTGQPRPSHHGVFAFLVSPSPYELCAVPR
Chain of Cytochrome P450 3A4 (P08684 whole entry): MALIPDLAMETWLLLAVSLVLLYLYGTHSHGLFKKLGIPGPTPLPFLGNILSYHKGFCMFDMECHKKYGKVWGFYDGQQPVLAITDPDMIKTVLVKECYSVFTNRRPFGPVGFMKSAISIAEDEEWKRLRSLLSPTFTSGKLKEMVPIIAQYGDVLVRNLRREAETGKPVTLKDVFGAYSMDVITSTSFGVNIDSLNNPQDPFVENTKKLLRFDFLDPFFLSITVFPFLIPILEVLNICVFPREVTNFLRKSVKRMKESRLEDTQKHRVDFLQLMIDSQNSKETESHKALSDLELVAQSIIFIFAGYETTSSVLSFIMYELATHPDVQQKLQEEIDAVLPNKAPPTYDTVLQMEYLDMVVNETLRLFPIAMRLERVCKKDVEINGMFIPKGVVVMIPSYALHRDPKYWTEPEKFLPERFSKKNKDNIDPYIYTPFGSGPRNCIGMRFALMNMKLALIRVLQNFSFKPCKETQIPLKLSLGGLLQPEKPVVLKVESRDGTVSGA

Compound: CC(C)NCC(O)COc1ccc(CC(N)=O)cc1 (centres undefined)
Activity (Rattus norvegicus [1]): Active

Drug uptake (Kidney [3]): 3 nmol/g
Drug uptake (Kidney [7]): 10 nmol/g
half-life [8]: 1.5 h
concentration (Plasma [9]): 200 nM
Drug metabolism [10]: 0.003 nmol/min/mg
IC50 (Cytochrome P450 2D6): > 10 µM
IC50 (Cytochrome P450 1A2): > 10 µM
concentration at 1 h [11]: 8000 nM
IC50 (Cytochrome P450 3A4): > 10 µM
IC50 (2-Hydroxyacid oxidase 1): 45.7 µM
AUC(0-t) at 8 h [12]: 27 µM·h
concentration at 1 h [13]: 2200 nM
fraction unbound [14]: < 0.01
Drug uptake (Kidney [15]): 7 nmol/g
Cmax [16]: 24000 nM
IC50 (Cytochrome P450 2C19): > 10 µM
AUC(0-t) at 8 h [17]: 7.1 µM·h
IC50 (Cytochrome P450 2C9): > 10 µM
Tmax [18]: 0.25 h
bioavailability [19]: 38%
clearance [20]: 8 mL/min/kg
Activity [21]: Not Active
concentration (Plasma [22]): 1900 nM
Drug uptake (Kidney [26]): 24 nmol/g
Activity [27]: Not Active
half-life [28]: 1.7 h
Ratio IC50 (Rattus norvegicus [29]): 150
Activity [30]: inactive
Vd [31]: 0.6 L/kg
IC50 (2-Hydroxyacid oxidase 2): 0.3 µM
Compound: Cc1n[nH]c(C(=O)O)c1Cc1cccc(-c2ccc(F)cc2)c1
Activity (Rattus norvegicus [2]): Active
Activity (Rattus norvegicus [4]): 31 mmHg
Activity (Rattus norvegicus [5]): 32 mmHg
inhibition in vivo at 30 mg/kg (Rattus norvegicus [6]): 28%
IC50 (HepG2): > 100 µM
inhibition in vivo at 3 mg/kg (Rattus norvegicus [23]): 0%
inhibition in vivo at 30 mg/kg (Rattus norvegicus [24]): 38%
inhibition in vivo at 3 mg/kg (Rattus norvegicus [25]): 29%

inhibition [32]: inactive
Ratio IC50 (Rattus norvegicus [29]): 150
Activity [30]: inactive
Compound: Cc1n[nH]c(C(=O)O)c1Cc1cc2ccccc2s1
Activity (Rattus norvegicus [4]): 33 mmHg
Activity (Rattus norvegicus [5]): 27 mmHg
inhibition in vivo at 30 mg/kg (Rattus norvegicus [6]): 42%
IC50 (HepG2): > 100 µM
inhibition in vivo at 3 mg/kg (Rattus norvegicus [23]): 0%
inhibition in vivo at 30 mg/kg (Rattus norvegicus [24]): 93%
inhibition in vivo at 3 mg/kg (Rattus norvegicus [25]): 75%
